tested on: southern root-knot nematode (Meloidgyne incognita); test: Test on southern root-knot nematode (soil treatment, tomato seedling, root knot index); assay type: in vivo; parameters: key: 0: No knot was formed; 1: Knots were formed to a slight degree; 2: Knots were formed to a moderate degree; 3: Knots were formed to a heavy degree; 4: Knots were formed to the heaviest degree; details: 7 ml of 1600 ppm chemical solution mixed into 300 ml contaminated soil; tomato seedling in 2-leaf stage; three to four weeks after transplantation
Protocol: TEST EXAMPLE 1 Test on Southern Root-knot Nematode (Meloidgyne incognita) To 300 ml of the soil contaminated by southern root-knot nematode, 7 ml of a chemical solution having the concentration of the compound of the present invention adjusted to be 1600 ppm, was poured, followed by mixing so that the compound was uniformly dispersed. The treated soil was put into a pot (diameter: 9 cm, height: 8 cm), and then a tomato seedling in 2-leaf stage was transplanted and placed in a greenhouse. After three to four weeks from the transplantation of the tomato, the root knot index was determined based on the following standards. [table]

Structure (SMILES)	root knot index
CC(C)(NC(=O)c1cccc(F)c1F)C(=O)c1ccc(F)cc1 [1-127]	1
CC(C)(NC(=O)c1c(F)cccc1F)C(=O)c1ccc(Cl)c(Cl)c1 [1-147]	1
CC(C)(NC(=O)c1ccc(F)cc1F)C(=O)c1ccc(Cl)cc1 [1-140]	1
CC(C)(NC(=O)c1ccccc1F)C(=O)c1ccc(C(F)(F)F)cc1 [1-167]	1
CC(C)(NC(=O)c1ccccc1)C(=O)c1ccc(Cl)cc1 [1-49]	1
CN(C(=O)c1ccccc1C(F)(F)F)C(C)(C)C(=O)c1ccccc1 [Compound No. 1-27, N-methyl-N-[(1,1-dimethyl)phenacyl]-2-trifluoromethylbenzamide]	1
CC(C)(NC(=O)c1ccc(C(F)(F)F)cc1)C(=O)c1ccccc1 [1-28]	1
CC(C)(NC(=O)c1c(F)cccc1F)C(=O)c1ccc(C(F)(F)F)cc1 [1-166]	1
CC(C)(NC(=O)c1ccccc1F)C(=O)c1ccc(OC(F)F)cc1 [1-171]	1
CC(C)(NC(=O)c1ccccc1Br)C(=O)c1ccccc1 [1-17]	1
CC(C)(NC(=O)c1c(F)cccc1F)C(=O)c1ccc(Br)cc1 [1-157]	1
CSc1ccccc1C(=O)NC(C)(C)C(=O)c1ccccc1 [1-31]	1
CC(C)(NC(=O)c1ccccc1[N+](=O)[O-])C(=O)c1ccccc1 [1-38]	1
CCc1ccc(C(=O)C(C)(C)NC(=O)c2c(F)cccc2F)cc1 [1-164]	1
CC(C)(NC(=O)c1c(F)cccc1F)C(=O)c1ccc(F)cc1 [1-128]	1
CC(C)(NC(=O)c1ccccc1C(F)(F)F)C(=O)c1ccc(Cl)cc1 [1-70]	1
COc1ccc(C(=O)C(C)(C)NC(=O)c2c(F)cccc2F)cc1 [1-168]	1
CC(C)(NC(=O)c1c(F)cccc1F)C(=O)c1ccc(S(C)(=O)=O)cc1 [1-213]	1
CC(C)(NC(=O)c1ccccc1Cl)C(=O)c1ccccc1 [Compound No. 1-5]	1
CC(C)(NC(=O)c1c(F)cccc1F)C(=O)c1ccc(OC(F)(F)C(F)F)cc1 [1-177]	1
CC(C)(NC(=O)c1ccccc1F)C(=O)c1ccc(I)cc1 [1-160]	1
CCC(C)(NC(=O)c1ccccc1F)C(=O)c1ccc(Cl)cc1 (racemic) [1-51]	1
CC(C)(NC(=O)c1c(F)cccc1F)C(=O)c1ccc(Oc2ccc(C(F)(F)F)cn2)cc1 [1-211]	1

Structure (SMILES)	root knot index
CC(C)(NC(=O)c1ccccc1Br)C(=O)c1ccc(Cl)cc1 [1-64]	1
CCOc1ccc(C(=O)C(C)(C)NC(=O)c2c(F)cccc2F)cc1 [1-169]	1
Cc1ccccc1C(=O)NC(C)(C)C(=O)c1ccc(Cl)cc1 [1-65]	1
CC(C)(NC(=O)c1ccccc1F)C(=O)c1ccc(Cl)cc1 [1-50]	1
CC(C)(NC(=O)c1ccccc1C(F)(F)F)C(=O)c1ccc(F)c(F)c1 [1-132]	1
CC(C)(NC(=O)c1ccc(F)cc1Cl)C(=O)c1ccc(Cl)cc1 [1-138]	1
CCC(C)(NC(=O)c1c(F)cccc1F)C(=O)c1ccc(Cl)cc1 (racemic) [1-151]	1
CC(C)(NC(=O)c1ccc(F)cc1F)C(=O)c1ccccc1 [1-125]	1
CC(C)(NC(=O)c1c(F)cccc1F)C(=O)c1ccc(OCC(F)(F)C(F)(F)F)cc1 [1-180]	1
CC(C)(NC(=O)c1cccc(F)c1F)C(=O)c1ccc(Br)cc1 [1-159]	1
CSc1ccc(C(=O)C(C)(C)NC(=O)c2c(F)cccc2F)cc1 [1-212]	1
CC(C)(NC(=O)c1ccccc1Cl)C(=O)c1ccc(OC(F)(F)C(F)F)cc1 [1-176]	1
CC(C)(NC(=O)c1c(F)cccc1F)C(=O)c1ccc(OC(F)F)cc1 [1-172]	1
CC(C)(NC(=O)c1ccccc1[N+](=O)[O-])C(=O)c1ccc(Cl)cc1 [1-136]	1
CC(C)(NC(=O)c1ccccc1F)C(=O)c1ccc(Cl)c(Cl)c1 [1-77]	1
CC(C)(NC(=O)c1cc(F)ccc1F)C(=O)c1ccc(Cl)cc1 [1-141]	1
Cc1ccc(C(=O)NC(C)(C)C(=O)c2ccccc2)cc1 [1-19]	1
Cc1ccccc1C(=O)NC(C)(C)C(=O)c1ccccc1 [1-18]	1
CC(C)(NC(=O)c1c(F)cccc1F)C(=O)c1ccccc1 [1-4]	1
CC(C)(NC(=O)c1ccccc1C(F)(F)F)C(=O)c1ccccc1 [1-24]	1
CC(C)(NC(=O)c1cccc(F)c1F)C(=O)c1ccc(Cl)cc1 [1-139]	1
CC(C)(NC(=O)c1c(F)cccc1F)C(=O)c1cccc(F)c1 [1-126]	1
CC(C)(NC(=O)c1ccccc1F)C(=O)c1ccc(OC(F)(F)C(F)F)cc1 [1-175]	1

Structure (SMILES)	root knot index
CC(C)(NC(=O)c1ccccc1Cl)C(=O)c1ccc(Br)cc1 [1-155]	1
CC(C)(NC(=O)c1ccccc1Cl)C(=O)c1ccc(OC(F)F)cc1 [1-95]	1
CC(C)(NC(=O)c1c(F)cccc1F)C(=O)c1ccc(OCC(F)(F)F)cc1 [1-174]	1
COc1ccc(C(=O)C(C)(C)NC(=O)c2ccccc2Cl)cc1 [1-93]	1
CC(C)(NC(=O)c1ccccc1Cl)C(=O)c1ccc(F)c(F)c1 [1-131]	1
CCc1ccc(C(=O)C(C)(C)NC(=O)c2ccccc2Cl)cc1 [1-83]	1
CC(C)(NC(=O)c1ccccc1C(F)(F)F)C(=O)c1ccc(I)cc1 [1-161]	1
Cc1ccc(C(=O)C(C)(C)NC(=O)c2c(F)cccc2F)cc1 [1-163]	1
CC(C)(NC(=O)c1c(F)cccc1F)C(=O)c1ccccc1Cl [1-134]	1
CC(C)(NC(=O)c1ccccc1F)C(=O)c1ccc(OCC(F)(F)C(F)(F)F)cc1 [1-179]	1
CC(C)(NC(=O)c1c(F)cccc1Cl)C(=O)c1ccc(Cl)cc1 [1-142]	1
CC(C)(NC(=O)c1c(F)cccc1F)C(=O)c1cccc(Cl)c1 [1-135]	1
CC(C)(NC(=O)c1ccccc1F)C(=O)c1ccc(F)c(F)c1 [1-130]	1
CC(C)(NC(=O)c1ccccc1F)C(=O)c1ccccc1 [1-1]	1
CC(C)(NC(=O)c1c(F)cccc1F)C(=O)c1ccc(Cl)cc1Cl [1-143]	1
CC(C)(NC(=O)c1ccccc1F)C(=O)c1ccc(OCC(F)(F)F)cc1 [1-173]	1
CC(C)(NC(=O)c1ccccc1C(F)(F)F)C(=O)c1ccc(OC(F)(F)C(F)F)cc1 [1-178]	1
CC(C)(NC(=O)c1ccccc1Cl)C(=O)c1ccc(Cl)cc1 [Compound No. 1-54, 2-chloro-N-[(4′-chloro-1,1-dimethyl)phenacyl]benzamide]	1
CC(C)(NC(=O)c1cccnc1Cl)C(=O)c1ccccc1 [2-2]	1
CC(C)(NC(=O)c1ccccc1F)C(=O)c1ccc(Br)cc1 [1-158]	1
CCc1ccc(C(=O)C(C)(C)NC(=O)c2cc(Cl)cc(Cl)c2)cc1 [Compound No. 1-84, 3,5-dichloro-N-[(4′-ethyl-1,1-dimethyl)phenacyl]benzamide]	1
CC(C)(NC(=O)c1c(F)cccc1F)C(=O)c1ccc(I)cc1 [1-162]	1
CC(C)(NC(=O)c1c(F)cccc1F)C(=O)c1ccc(F)c(F)c1 [1-133]	1

— patent publication US7439366B2, “Phenacylamine derivatives, process for their production and pesticides containing them” (Ishihara Sangyo Kaisha Ltd., priority 2000, dated 2008)
